Measurements: patent US8263617B2, “Chromen-2-one derivatives and their use as monoamine neurotransmitter re-uptake inhibitors” (Neurosearch A/S, priority 2006, dated 2012)
Counter-ions that a name gives are not always drawn.

Key:
Format in all cases: biochemical
[1] = molecular target: T1, reuptake of serotonine (5-HT) in synaptosomes (Rattus norvegicus, UniProt P31652); assay: Inhibition of 5-HT reuptake in synaptosomes; details: 3H-5-HT, read-out: 5-HT-uptake IC50
T1 construct: in synaptosomes as described in WO 97/16451; from tissue
Procedure: (§1) A number of compounds were tested for their ability to inhibit the reuptake of the monoamine neurotransmitters dopamine (DA), noradrenaline (NA) and serotonine (5-HT) in synaptosomes as described in WO 97/16451.
(§2) The test values are given as IC50 (the concentration (μM) of the test substance which inhibits the specific binding of ^3H-DA, ^3H-NA, or ^3H-5-HT by 50%).

[2] = molecular target: T2, reuptake of dopamine (DA) in synaptosomes (Rattus norvegicus, UniProt P23977); assay: Inhibition of DA reuptake in synaptosomes; details: 3H-DA, read-out: DA-uptake IC50
T2 construct: in synaptosomes as described in WO 97/16451; from tissue
Procedure: as §1, §2

[3] = molecular target: T3, reuptake of noradrenaline (NA) in synaptosomes (Rattus norvegicus, UniProt Q63380); assay: Inhibition of NA reuptake in synaptosomes; details: 3H-NA, read-out: NA-uptake IC50
T3 construct: in synaptosomes as described in WO 97/16451; from tissue
Procedure: as §1, §2

T1 sequence (P31652 whole entry): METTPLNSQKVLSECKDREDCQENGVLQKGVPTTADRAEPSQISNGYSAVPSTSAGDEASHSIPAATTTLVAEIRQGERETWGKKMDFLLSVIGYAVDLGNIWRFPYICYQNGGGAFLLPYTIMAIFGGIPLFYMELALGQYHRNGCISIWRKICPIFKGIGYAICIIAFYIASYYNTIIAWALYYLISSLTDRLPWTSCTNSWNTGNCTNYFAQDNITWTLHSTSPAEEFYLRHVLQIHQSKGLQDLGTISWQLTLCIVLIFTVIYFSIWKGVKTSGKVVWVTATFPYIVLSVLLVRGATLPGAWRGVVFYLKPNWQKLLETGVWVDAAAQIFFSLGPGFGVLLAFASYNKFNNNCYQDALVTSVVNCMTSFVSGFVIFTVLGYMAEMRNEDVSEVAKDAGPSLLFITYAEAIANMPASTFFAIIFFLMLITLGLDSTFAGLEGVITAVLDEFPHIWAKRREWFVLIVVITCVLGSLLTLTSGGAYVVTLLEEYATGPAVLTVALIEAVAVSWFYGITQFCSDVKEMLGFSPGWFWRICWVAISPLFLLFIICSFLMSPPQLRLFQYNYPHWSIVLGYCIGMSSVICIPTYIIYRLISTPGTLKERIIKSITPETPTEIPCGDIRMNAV
T2 sequence (P23977 whole entry): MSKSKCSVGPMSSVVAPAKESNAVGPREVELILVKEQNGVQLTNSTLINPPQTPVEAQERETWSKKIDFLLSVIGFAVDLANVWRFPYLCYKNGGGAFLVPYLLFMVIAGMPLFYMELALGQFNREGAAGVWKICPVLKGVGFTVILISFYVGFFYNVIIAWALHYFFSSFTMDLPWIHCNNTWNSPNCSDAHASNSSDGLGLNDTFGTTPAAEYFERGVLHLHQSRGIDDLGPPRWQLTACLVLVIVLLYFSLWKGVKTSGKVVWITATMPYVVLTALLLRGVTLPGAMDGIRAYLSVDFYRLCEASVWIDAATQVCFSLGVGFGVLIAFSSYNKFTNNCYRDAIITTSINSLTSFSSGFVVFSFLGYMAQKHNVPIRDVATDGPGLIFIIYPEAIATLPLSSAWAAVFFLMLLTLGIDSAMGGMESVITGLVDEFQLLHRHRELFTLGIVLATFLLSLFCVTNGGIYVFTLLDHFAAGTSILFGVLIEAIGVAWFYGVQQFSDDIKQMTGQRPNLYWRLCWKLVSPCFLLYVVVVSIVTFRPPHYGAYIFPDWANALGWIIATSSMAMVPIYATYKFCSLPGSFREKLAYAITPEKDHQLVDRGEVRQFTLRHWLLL
T3 sequence (Q63380 1-617): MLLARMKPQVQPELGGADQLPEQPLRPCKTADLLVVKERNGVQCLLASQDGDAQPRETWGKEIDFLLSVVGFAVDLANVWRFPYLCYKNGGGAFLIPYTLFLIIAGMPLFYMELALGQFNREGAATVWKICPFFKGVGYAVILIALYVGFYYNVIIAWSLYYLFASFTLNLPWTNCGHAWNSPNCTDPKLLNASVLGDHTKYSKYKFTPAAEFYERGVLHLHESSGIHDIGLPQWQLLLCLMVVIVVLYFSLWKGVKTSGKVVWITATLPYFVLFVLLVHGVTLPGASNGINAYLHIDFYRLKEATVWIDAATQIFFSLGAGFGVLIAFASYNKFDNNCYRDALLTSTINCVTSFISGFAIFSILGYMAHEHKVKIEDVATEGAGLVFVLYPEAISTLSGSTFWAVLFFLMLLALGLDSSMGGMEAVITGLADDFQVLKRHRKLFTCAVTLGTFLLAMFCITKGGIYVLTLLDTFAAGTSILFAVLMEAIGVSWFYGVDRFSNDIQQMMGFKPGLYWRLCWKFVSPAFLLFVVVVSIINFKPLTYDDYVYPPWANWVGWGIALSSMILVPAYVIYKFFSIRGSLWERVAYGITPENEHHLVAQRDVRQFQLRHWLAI

Row | Structure (SMILES) | IC50 [1] [nM] | IC50 [2] [nM] | IC50 [3] [nM]
1 | O=c1oc2cc(OC3CC4CCC(C3)N4)ccc2cc1-c1ccco1 [1st Compound of Method A, exo-7-[(1S,3S,5R)-(8-Aza-bicyclo[3.2.1]oct-3-yl)oxy]-3-furan-2-yl-chromen-2-one hydrochloric acid salt] | 7.7 | 34 | 4.3
2 | O=c1oc2cc(OC3CC4CCC(C3)N4)ccc2cc1-c1ccoc1 [2nd Compound of Method A, exo-7-[(1S,3S,5R)-(8-Aza-bicyclo[3.2.1]oct-3-yl)oxy]-3-furan-3-yl-chromen-2-one hydrochloric acid salt] | 10 | 9.9 | 0.48
3 | O=c1oc2cc(OC3CC4CCC(C3)N4)ccc2cc1-c1cc2ccccc2o1 [3rd Compound of Method A, exo-7-[(1S,3S,5R)-(8-Aza-bicyclo[3.2.1]oct-3-yl)oxy]-3-benzofuran-2-yl-chromen-2-one hydrochloric acid salt] | 9.1 | 700 | 840
